Data published in patent publication US7585895B2, “Therapeutic substituted cyclopentanes” (Allergan, Inc., priority 2005, dated 2009).

Columns and labels:
Type in all cases: cell-based
hEP2/Gqs5 = target: T1, hEP2/Gqs5 (Homo sapiens, UniProt P43116); assay: FLIPR calcium signal, EP2; settings: HEK-293(EBNA), value outside parentheses, read-out: Ca2+ Signal-EC50 (nM) EP2
T1 construct: expressed in transfected cells
In short: (§1)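 Stably transfected HEK-293(EBNA) cells loaded with 2 μM Fluo-4 AM in HBSS-HEPES pH 7.4, 37° C; peak fluorescence rise after compound addition (FLIPR, 488 nm excitation) expressed relative to buffer and standard agonist controls (PGE2 for EP subtypes, U-46619 for TP). Tested 10^−5 to 10^−11 M, duplicates, n≧3.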

EP2 = EP2 (Homo sapiens, UniProt P43116); assay: cAMP assay, HEK-EBNA cells expressing EP2; design: expressed in transfected cells; host or cells: HEK-EBNA; settings: value in parentheses in EP2 column, read-out: EP2 EC50 (nM), measurement of cAMP (data in parentheses)
In short: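 HEK-EBNA cells expressing EP2 (10^4 cells per well) were stimulated for 30 min at room temperature with compound in HBSS containing 0.1% BSA, 0.5 mM IBMX and 5 mM HEPES, pH 7.4. Compounds ran in 16-point serial dilutions in triplicate. cAMP was detected by AlphaScreen competition between anti-cAMP acceptor beads and biotin-cAMP/streptavidin donor beads.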

hEP3A/Gqi5 = target: T2, hEP3A/Gqi5 (Homo sapiens, UniProt P43115); assay: FLIPR calcium signal, EP3; settings: HEK-293(EBNA); for EC50: read-out: Ca2+ Signal-EC50 (nM) EP3
T2 construct: expressed in transfected cells
T2 sequence (P43115 1-390): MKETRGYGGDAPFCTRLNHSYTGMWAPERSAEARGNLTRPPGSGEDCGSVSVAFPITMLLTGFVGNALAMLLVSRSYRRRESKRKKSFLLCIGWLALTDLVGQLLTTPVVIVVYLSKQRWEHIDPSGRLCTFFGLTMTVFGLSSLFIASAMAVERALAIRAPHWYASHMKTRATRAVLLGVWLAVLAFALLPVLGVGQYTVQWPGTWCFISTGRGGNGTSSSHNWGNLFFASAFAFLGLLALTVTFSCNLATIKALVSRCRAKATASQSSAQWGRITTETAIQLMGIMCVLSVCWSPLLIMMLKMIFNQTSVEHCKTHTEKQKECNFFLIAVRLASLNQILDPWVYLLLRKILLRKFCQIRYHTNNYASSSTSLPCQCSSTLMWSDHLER
In short: as §1

hDP/Gqs5 = target: T3, hDP/Gqs5 (Homo sapiens, UniProt Q13258); assay: FLIPR calcium signal, DP; settings: HEK-293(EBNA)
T3 construct: expressed in transfected cells
T3 sequence (Q13258 1-359): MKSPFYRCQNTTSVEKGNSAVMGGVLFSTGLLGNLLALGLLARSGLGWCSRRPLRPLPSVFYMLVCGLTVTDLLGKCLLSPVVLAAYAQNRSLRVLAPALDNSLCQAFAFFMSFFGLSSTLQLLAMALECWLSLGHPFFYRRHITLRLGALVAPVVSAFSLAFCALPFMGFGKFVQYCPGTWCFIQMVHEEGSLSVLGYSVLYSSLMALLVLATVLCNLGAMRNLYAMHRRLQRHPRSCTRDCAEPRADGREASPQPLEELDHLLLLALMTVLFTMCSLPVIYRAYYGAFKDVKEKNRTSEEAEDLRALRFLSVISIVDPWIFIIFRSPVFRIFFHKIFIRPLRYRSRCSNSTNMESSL
In short: as §1

hIP = target: T4, hIP (Homo sapiens, UniProt P43119); assay: FLIPR calcium signal, IP; settings: HEK-293(EBNA)
T4 construct: expressed in transfected cells
In short: as §1

hTP = target: T5, hTP (Homo sapiens, UniProt P21731); assay: FLIPR calcium signal, TP; settings: HEK-293(EBNA)
T5 construct: expressed in transfected cells
T5 sequence (P21731 1-343): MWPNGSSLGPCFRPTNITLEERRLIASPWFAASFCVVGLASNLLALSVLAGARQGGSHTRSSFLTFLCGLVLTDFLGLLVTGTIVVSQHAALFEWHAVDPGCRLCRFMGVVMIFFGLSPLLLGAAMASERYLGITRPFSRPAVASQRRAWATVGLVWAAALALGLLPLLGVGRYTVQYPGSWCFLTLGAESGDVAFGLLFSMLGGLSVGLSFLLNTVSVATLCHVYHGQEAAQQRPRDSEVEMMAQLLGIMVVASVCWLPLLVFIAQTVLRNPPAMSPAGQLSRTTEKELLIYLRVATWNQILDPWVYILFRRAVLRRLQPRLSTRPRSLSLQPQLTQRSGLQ
In short: as §1

T4 sequence (P43119 whole entry): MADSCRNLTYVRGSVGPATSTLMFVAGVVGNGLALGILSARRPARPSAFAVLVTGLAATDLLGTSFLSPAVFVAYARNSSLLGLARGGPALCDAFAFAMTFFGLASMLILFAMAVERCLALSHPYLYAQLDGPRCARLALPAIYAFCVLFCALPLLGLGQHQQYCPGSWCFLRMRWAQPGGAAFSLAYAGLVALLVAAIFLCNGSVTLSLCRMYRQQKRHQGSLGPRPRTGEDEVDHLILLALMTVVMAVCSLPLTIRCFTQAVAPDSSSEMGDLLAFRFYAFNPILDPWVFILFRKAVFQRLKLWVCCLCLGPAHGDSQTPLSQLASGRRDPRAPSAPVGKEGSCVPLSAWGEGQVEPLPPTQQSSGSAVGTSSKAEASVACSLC
T1 sequence (P43116 whole entry): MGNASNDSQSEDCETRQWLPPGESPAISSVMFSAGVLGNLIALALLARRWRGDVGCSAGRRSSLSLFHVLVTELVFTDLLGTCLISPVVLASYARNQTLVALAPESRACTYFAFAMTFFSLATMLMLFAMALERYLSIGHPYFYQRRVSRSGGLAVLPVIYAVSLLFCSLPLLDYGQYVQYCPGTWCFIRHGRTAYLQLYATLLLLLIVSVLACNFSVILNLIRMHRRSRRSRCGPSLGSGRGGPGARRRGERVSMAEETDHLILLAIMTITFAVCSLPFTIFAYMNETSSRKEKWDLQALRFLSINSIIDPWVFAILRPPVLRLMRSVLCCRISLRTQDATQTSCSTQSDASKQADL
EP2, sequence (P43116 whole entry): as above

| Compound | EC50 (hEP2/Gqs5) [nM] | EC50 (EP2) [nM] | Ca2+ Signal-EC50 (nM) EP3 (hEP3A/Gqi5) | Ca2+ Signal-EC50 (nM) DP (hDP/Gqs5) | Ca2+ Signal-EC50 (nM) IP (hIP) | Ca2+ Signal-EC50 (nM) TP (hTP) | EC50 (hEP3A/Gqi5) [nM] | EC50 (hIP; read-out: Ca2+ Signal-EC50 (nM) IP) [nM] |
| --- | --- | --- | --- | --- | --- | --- | --- | --- |
| O=C(O)CCCCCC[C@@H]1[C@@H](c2ccc(C(O)CC3CCCCC3)cc2)[C@H](O)C[C@H]1Cl (stereo partly drawn) [Entry 18, 7-{(1R,2S,3R,5R)-5-Chloro-2-[4-(2-cyclohexyl-1-hydroxy-ethyl)-phenyl]-3-hydroxy-cyclopentyl}-heptanoic acid] | 2250 | 2660 | not active | not active | not active | not active |  |  |
| O=C(O)CCC/C=C\C[C@@H]1[C@@H](c2ccc(C(O)CCC3CCCCC3)cc2)[C@H](O)C[C@H]1Cl (stereo partly drawn) [Entry 15, (Z)-7-{(1R,2S,3R,5R)-5-Chloro-2-[4-(3-cyclohexyl-1-hydroxy-propyl)-phenyl]-3-hydroxy-cyclopentyl}-hept-5-enoic acid] | 495 | 176 |  | not active | not active | not active | 2220 |  |
| CCCCC(O)C(C)(C)c1ccc([C@@H]2[C@@H](C/C=C\CCCC(=O)O)[C@H](Cl)C[C@H]2O)cc1 (mixture of isomers) [Entry 32, (Z)-7-{(1R,2S,3R,5R)-5-Chloro-3-hydroxy-2-[4-(2-hydroxy-1,1-dimethyl-hexyl)-phenyl]-cyclopentyl}-hept-5-enoic acid] | 164 | 9 |  | not active | not active | not active | 2810 |  |
| O=C(O)CCC/C=C\C[C@@H]1[C@@H](c2ccc(C(O)CC3CCCCC3)cc2)[C@H](O)C[C@H]1Cl (mixture of isomers) [Entry 17, (Z)-7-{(1R,2S,3R,5R)-5-Chloro-2-[4-(2-cyclohexyl-1-hydroxy-ethyl)-phenyl]-3-hydroxy-cyclopentyl}-hept-5-enoic acid] | 953 | 495 | not active | not active | not active | not active |  |  |

Stronger by EC50 (hEP2/Gqs5), values ahead:

| EC50 (hEP2/Gqs5) [nM] | EC50 (EP2) [nM] | Ca2+ Signal-EC50 (nM) EP3 (hEP3A/Gqi5) | Ca2+ Signal-EC50 (nM) DP (hDP/Gqs5) | Ca2+ Signal-EC50 (nM) IP (hIP) | Ca2+ Signal-EC50 (nM) TP (hTP) | EC50 (hEP3A/Gqi5) [nM] | EC50 (hIP; read-out: Ca2+ Signal-EC50 (nM) IP) [nM] | Compound |
| --- | --- | --- | --- | --- | --- | --- | --- | --- |
| 154 | 7 | not active | not active | not active | not active |  |  | CCCC(O)c1ccc([C@@H]2[C@@H](C/C=C\CCCC(=O)O)[C@H](Cl)C[C@H]2O)cc1 (stereo partly drawn) [Entry 26, (Z)-7-{(1R,2S,3R,5R)-5-Chloro-3-hydroxy-2-[4-(1-hydroxy-butyl)-phenyl]-cyclopentyl}-hept-5-enoic acid] |
| 53 | 8 |  | not active |  | not active | 1450 | 10100 | CCCCCC(O)c1ccc([C@@H]2[C@@H](C/C=C\CCCC(=O)O)[C@H](F)C[C@H]2O)cc1 (mixture of isomers) [Entry 8, (Z)-7-{(1R,2S,3R,5R)-5-Fluoro-3-hydroxy-2-[4-(1-hydroxy-hexyl)-phenyl]-cyclopentyl}-hept-5-enoic acid] |
| 7 | 3 |  | not active | not active | not active | 456 |  | CCCCCC(O)c1ccc([C@@H]2[C@@H](C/C=C\CCCC(=O)O)[C@H](Cl)C[C@H]2O)cc1 (mixture of isomers) [Entry 11, (Z)-7-{(1R,2S,3R,5R)-5-Chloro-3-hydroxy-2-[4-(1-hydroxy-hexyl)-phenyl]-cyclopentyl}-hept-5-enoic acid] |
